Experimental data: patent publication US20240109883A1, “Anti-Tumor Compositions and Methods” (priority 2020, published 2024)

Tests used:
Type in all cases: cell-based
MRC5 TOX 7 d = conditions: human
[1] = test system: human cytomegalovirus (HCMV); experiment: Antiviral activity against human cytomegalovirus (HCMV) in MRC5 cells; conditions: for IC50 / IC90: Human betaherpesvirus 5, 168 h, MRC5 cells, MOI 0.01 IU per cell, 7 days post infection, mCherry positive cells; for Selectivity Index: SI50: MRC5 TOX 7 d CC50 relative to HCMV IC50
Method: To assess their antiviral activity, some compounds were tested against human cytomegalovirus (HCMV) in vitro. Human MRC5 cells were grown to confluency (˜1.0×10^4 cells/well) in 96-well plate format in Dulbecco's Modified Eagle Medium (DMEM) supplemented with 10% fetal bovine serum (FBS) 2 mM L-glutamine, 0.1 mM non-essential amino acids, 10 mM HEPES, and 100 U/ml each of penicillin and streptomycin and infected with an HCMV variant expressing mCherry tagged pUL99 (the product of late viral UL99 gene) at a multiplicity of 0.01 infectious unit (IU) per cell. Assays were performed in triplicate. One hour later, medium of the cells was replaced with fresh medium containing the indicated compounds at 25, 12.5, 6.25, 3.13, 1.56, 0.78, 0.39 μM or the carrier in which the compounds are dissolved (DMSO). Final concentration of DMSO was 0.5% in each treatment. Virus yield in the culture was determined at 7 days post infection by quantification of fluorescent (mCherry positive) cells in each well by fluorescent microscopy. Results were plotted using CDD Vault (CDD Vault was developed by Collaborative Drug Discovery, Inc., 1633 Bayshore Hwy, Suite 342, Burlingame, CA 94010) in order to calculate IC50s and IC90s.

MCF7 cells = experiment: MCF7 Cell Growth Inhibition Assay; conditions: Homo sapiens, 24 h, 10% serum, DAPI cell count, 4-pt dilution from 10 μM
Method: MCF7 cells were seeded in 96-well plates at 10% confluence 24 h prior to treatment. Compound was added to cells in full growth media containing 10% serum, using a 2-fold, 4-pt dilution scheme beginning from 10 μM (10, 5, 2.5, 1.25 μM). Plates were incubated for 24 h. After treatment, cells were washed, fixed with 4% PFA and stained with DAPI. Plates were imaged using a Cytation 3 plate reader and nuclear DAPI staining was used to quantify cell number. % Growth relative to vehicle-treated (DMSO) control wells was plotted using Excel (See FIGS. 1-8). IC50s were calculated by fitting the data points to the following standard equation:
Growth=1−[Cmpd]^n/(IC50^n+[Cmpd]^n)
where [Cmpd] is the molar concentration of compound, the IC50 is the concentration where half-maximal effect is seen, and n is the Hill coefficient.

MRC5 4d Toxicity Assay = conditions: human, confluent MRC5 cells, DAPI cell count, read-out: MRC5 4 d Tox: CC50
Method: MRC5 cells were seeded in 96-well plates 1-2 days prior to treatment to ensure 100% confluence. On the day of treatment, cells were washed once and growth media was replaced. Compound (in DMSO) was added to cells using the following dilution scheme: 25, 12.5, 4.16, 1.4, 0.46, 0.15, 0.05 μM. Test concentrations were assayed in duplicate and included 0 μM (DMSO) control wells. Plates were incubated for 4 days. After treatment, cells were washed, fixed with 4% PFA and stained with DAPI. Plates were imaged using a Cytation 3 plate reader and nuclear DAPI staining was used to quantify cell survival. Dose-response plots were generated using CDD Vault to calculate CC50s.

cMYC = cMYC Degradation Assay (MDA-MB-231 cells, western blot); conditions: 72 hours
Method: MDA-MB-231 cells were seeded in 6-well format in complete growth media containing 10% serum and incubated for 48 h to ensure 100% confluence. Compound was added to cells at 5 μM and 10 μM final concentrations for a treatment period of 72 hours. Cells were harvested in ice-cold IP buffer and lysates were cleared by centrifugation. Total protein concentration was determined for each sample by Bradford assay. Proteins were separated by 10% SDS-PAGE and blotted onto PVDF membranes. Membranes were blocked with CosmoBio PDVF blocking reagent for 1 hour, followed by overnight incubation with cMYC primary antibody (Abcam) at 4 C. After several washes, the membanes were probed with secondary antibody for 1 hour at room temperature. Fluorescent signal was acquired using an Odyssey CLx (LI-COR) and quantified using ImageJ software.

Row | SMILES | CC50 at 7 d (MRC5 TOX 7 d) [µM] | IC50 [1] [µM] | IC90 [1] [µM] | Selectivity Index: SI50 [1] | GI50 (MCF7 cells) [µM] | CC50 at 4 days (MRC5 4d Toxicity Assay) [µM] | MDA-MB-231 cMYC: Fold Decrease in Low MW Band at 5 μM (cMYC) [fold] | MDA-MB-231 cMYC: Fold Increase in High MW Band at 5 μM (cMYC) [fold] | MDA-MB-231 cMYC: Fold Decrease in Low MW Band at 10 μM (cMYC) [fold] | MDA-MB-231 cMYC: Fold Increase in High MW Band at 10 μM (cMYC) [fold] | MDA-MB-231 cMYC qualitative degredation (cMYC)
1 | NC(=O)Nc1ccc2c(c1)CN(c1ncc(Cc3ccc(N4CCOCC4)cc3)s1)CC2 [Example 005] | > 10.4 | 1.43 | 2.92 | >7.3 |  |  |  |  |  |  | 
2 | CCOc1ccc(Cc2cnc(N3CCc4ccc(N(C)C(N)=O)cc4C3)s2)cc1 [Example 009] | > 50 | 2.04 | 7.43 | >24.4 |  |  |  |  |  |  | 
3 | CN(C)C(=O)N(C)c1ccc2c(c1)CN(c1ncc(Cc3ccc(-n4cccn4)cc3)s1)CC2 [Example 024] | 21.4 | 1.14 | 5.31 | 18.7 | 1.8 | > 25 |  |  |  |  | 
4 | CN(C(N)=O)c1ccc2c(c1)CN(c1ncc(Cc3ccc(OCC4CC4)cc3)s1)CC2 [Example 010] | 16.9 | 2.44 | 7.97 | 6.9 |  |  |  |  |  |  | 
5 | CN(C(N)=O)c1ccc2c(c1)CN(c1ncc(Cc3ccc(-c4ncccn4)cc3)s1)CC2 [Example 011] | > 10.4 | 1.48 | > 10.4 | >7.0 |  |  | 0.31 | 1.53 | 0.5 | 2.6 | partial
6 | NC(=O)Nc1ccc2c(c1)CN(c1ncc(Cc3ccc(-n4cccn4)cc3)s1)CC2 [Example 019] | > 6.77 | 0.791 | > 6.61 | >8.6 | 11 | > 25 | 0.62 | 1.18 | 0.9 | 3.2 | partial
7 | NC(=O)Nc1ccc2c(c1)CN(c1ncc(Cc3ccc(N4CCOC4=O)cc3)s1)CC2 [Example 003] | > 6.77 | 5.77 | > 6.77 | >1.2 | 17.5 | > 25 |  |  |  |  | 
8 | NC(=O)Nc1ccc2c(c1)CN(c1ncc(Cc3ccc(-c4ccco4)cc3)s1)CC2 [Example 007] | > 2.89 | 1.19 | > 2.89 | >2.4 |  |  | 0.63 | 0.9 | 0.8 | 1.3 | no degradation
9 | CNC(=O)N(C)c1ccc2c(c1)CN(c1nnc(Cc3ccc(-n4cccn4)cc3)s1)CC2 [Example 013] | > 50 | 4.27 | 9.25 | >11.7 |  |  |  |  |  |  | 
10 | NC(=O)Nc1ccc2c(c1)CN(c1ncc(Cc3ccc(N4CCS(=O)(=O)CC4)cc3)s1)CC2 [Example 002] | > 50 | 2.59 | 7.58 | >19.3 |  |  |  |  |  |  | 
11 | CN(C(N)=O)c1ccc2c(c1)CN(c1ncc(Cc3ccc(-n4cccn4)cc3)s1)CC2 [Example 020] | 3.63 | 1.24 | 4.7 | 2.9 | 2.3 | > 25 |  |  |  |  | 
12 | CCOc1ccc(Cc2cnc(N3CCc4ncc(NC(N)=O)cc4C3)s2)cc1 [Example 017] | 47.3 | 6.46 | 47.5 | 7.3 |  |  |  |  |  |  | 
13 | CS(=O)(=O)c1ccc(Cc2cnc(N3CCc4ccc(NC(N)=O)cc4C3)s2)cc1 [Example 004] | > 15.8 | 5.59 | > 25 | >2.8 | 142 | > 25 |  |  |  |  | 
14 | NC(=O)Nc1cnc2c(c1)CN(c1ncc(Cc3ccc(N4CCOCC4)cc3)s1)CC2 [Example 018] | > 50 | 16.1 | 17.7 | >3.1 |  |  |  |  |  |  | 
15 | CN1CC(Oc2ccc(Cc3cnc(N4CCc5ccc(NC(N)=O)cc5C4)s3)cc2)C1 [Example 006] | 43.4 | 3.37 | > 50 | 12.9 |  |  |  |  |  |  | 
16 | NC(=O)Nc1cnc2c(c1)CN(c1ncc(Cc3ccc(-n4cccn4)cc3)s1)CC2 [Example 016] | > 15.8 | 5.25 | > 6.77 | >3.0 |  |  |  |  |  |  | 
17 | CNC(=O)N(C)c1ccc2c(c1)CN(c1noc(Cc3ccc(-n4cccn4)cc3)n1)CC2 [Example 015] | 44.4 | 2.51 | 5.59 | 17.7 |  |  |  |  |  |  | 
18 | CN(C)C(=O)Nc1ccc2c(c1)CN(c1ncc(Cc3ccc(-n4cccn4)cc3)s1)CC2 [Example 022] | > 4.43 | 0.536 | > 4.43 | >8.3 | 18.3 | > 25 |  |  |  |  | 
19 | CN(C(N)=O)c1ccc2c(c1)CN(c1ncc(Cc3ccc(N4CCOCC4)cc3)s1)CC2 [Example 012] | > 50 | 2.13 | > 4.24 | >23.5 |  |  |  |  |  |  | 
20 | CNC(=O)Nc1ccc2c(c1)CN(c1ncc(Cc3ccc(-n4cccn4)cc3)s1)CC2 [Example 021] | > 2.89 | 1.17 | > 4.43 | >2.5 | 18.3 | > 25 |  |  |  |  | 
